Test results from ChEMBL document CHEMBL4808176, “Optimization of Truncated Glucagon Peptides to Achieve Selective, High Potency, Full Antagonists” (J Med Chem, 2021).
Each block holds one compound with its values, some of them ahead of it. Activity calls are given as the source filed them. No cut-off for these calls is given here. Peptide text beside a SMILES is read from it.

Key:
Glucagon receptor [1] = molecular target: T1, Glucagon receptor (Homo sapiens, UniProt P47871); assay: Partial antagonist activity at human GCGR expressed in HEK293 cells assessed as inhibition of glucogon-induced cAMP production; format: functional, cell-based; details: filed as antagonist
T1 sequence (P47871 whole entry): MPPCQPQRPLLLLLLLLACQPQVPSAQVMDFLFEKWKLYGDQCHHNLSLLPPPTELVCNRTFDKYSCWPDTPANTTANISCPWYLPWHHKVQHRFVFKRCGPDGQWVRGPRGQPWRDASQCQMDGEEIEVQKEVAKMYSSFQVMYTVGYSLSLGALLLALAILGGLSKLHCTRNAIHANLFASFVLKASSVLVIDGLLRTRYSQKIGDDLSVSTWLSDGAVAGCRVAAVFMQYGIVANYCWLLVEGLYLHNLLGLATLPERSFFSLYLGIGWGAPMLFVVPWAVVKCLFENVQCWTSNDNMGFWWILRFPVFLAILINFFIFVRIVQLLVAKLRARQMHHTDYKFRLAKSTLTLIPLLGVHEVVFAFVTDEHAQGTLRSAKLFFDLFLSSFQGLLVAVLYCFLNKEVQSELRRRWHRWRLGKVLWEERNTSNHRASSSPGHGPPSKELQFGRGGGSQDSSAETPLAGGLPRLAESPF

Glucagon receptor [2] = molecular target: T1, Glucagon receptor; assay: Antagonist activity at human GCGR expressed in HEK293 cells assessed as inhibition of glucogon-induced cAMP production by schild plot analysis; format: functional, cell-based; details: dose 0.1-1.6 µM
[3] = molecular target: T2, Gastric inhibitory polypeptide receptor (Mus musculus) (UniProt Q0P543); assay: Antagonist activity at mouse GIPR expressed in CHO-K1 cells assessed as inhibition of GIP-induced cAMP production relative to control; format: cell-based; details: filed as antagonist, concentration not given here
T2 sequence (whole entry): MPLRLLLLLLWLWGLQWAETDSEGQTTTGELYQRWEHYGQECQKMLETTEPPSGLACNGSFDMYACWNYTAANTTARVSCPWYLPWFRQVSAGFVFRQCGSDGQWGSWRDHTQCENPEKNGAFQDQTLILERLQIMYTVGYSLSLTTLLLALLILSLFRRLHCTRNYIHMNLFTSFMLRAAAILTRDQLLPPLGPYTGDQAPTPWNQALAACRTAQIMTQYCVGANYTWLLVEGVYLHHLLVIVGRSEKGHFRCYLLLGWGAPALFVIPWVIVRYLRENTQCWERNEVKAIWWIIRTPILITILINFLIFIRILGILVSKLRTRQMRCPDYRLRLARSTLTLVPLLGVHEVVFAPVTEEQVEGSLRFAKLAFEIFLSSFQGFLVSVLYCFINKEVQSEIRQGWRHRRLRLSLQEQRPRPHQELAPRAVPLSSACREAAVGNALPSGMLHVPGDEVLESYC

Mus musculus [4] = assay: Inhibition of IUB288-induced glucose elevation in C57BL/6 mouse at 1500 nmol/kg, sc pretreated for 24 hrs followed by IUB288 stimulation and measured upto 4 hrs; format: functional, organism-based; details: time 28.0 hrs
[5] = AUC in C57BL/6 mouse at 1500 nmol/kg, sc measured upto 48 hrs by LC-MS analysis; format: ADME, organism-based; design: route subcutaneous, dose 1500 nmol/kg, time <=48; details: in vivo
[6] = molecular target: T3, Gastric inhibitory polypeptide receptor (Homo sapiens, UniProt P48546); assay: Antagonist activity at human GIPR expressed in HEK293 cells assessed as inhibition of GIP-induced cAMP production; format: functional, cell-based
T3 sequence (P48546 whole entry): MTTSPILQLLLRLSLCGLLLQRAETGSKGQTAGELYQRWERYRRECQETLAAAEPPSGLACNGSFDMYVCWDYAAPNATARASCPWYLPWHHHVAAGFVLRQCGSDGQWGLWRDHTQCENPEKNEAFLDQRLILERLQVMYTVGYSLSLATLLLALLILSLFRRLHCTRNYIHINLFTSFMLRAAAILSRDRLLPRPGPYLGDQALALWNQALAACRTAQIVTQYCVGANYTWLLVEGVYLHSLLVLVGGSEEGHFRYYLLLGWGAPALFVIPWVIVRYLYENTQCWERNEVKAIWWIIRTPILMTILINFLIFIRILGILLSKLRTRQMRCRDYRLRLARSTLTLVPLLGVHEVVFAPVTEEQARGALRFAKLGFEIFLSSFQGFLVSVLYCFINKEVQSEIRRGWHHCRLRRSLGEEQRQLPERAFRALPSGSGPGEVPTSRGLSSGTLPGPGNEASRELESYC

Mus musculus [7] = assay: Inhibition of IUB288-induced glucose elevation in C57BL/6 mouse at 1500 nmol/kg, sc pretreated for 4 to 8 hrs followed by IUB288 stimulation and measured upto 4 hrs; format: functional, organism-based; details: time 8-12 hrs
Glucagon receptor [8] = molecular target: T1, Glucagon receptor; assay: Antagonist activity at human GCGR expressed in HEK293 cells assessed as inhibition of glucogon-induced cAMP production relative to control; format: functional, cell-based; details: filed as antagonist, concentration not given here
[9] = molecular target: Glucagon receptor (Mus musculus) (UniProt Q61606); assay: Antagonist activity at mouse GCGR expressed in CHO-K1 cells assessed as inhibition of glucogon-induced cAMP production relative to control; format: functional, cell-based; details: filed as antagonist, concentration not given here
Chain of Glucagon receptor (Mus musculus) (Q61606 whole entry): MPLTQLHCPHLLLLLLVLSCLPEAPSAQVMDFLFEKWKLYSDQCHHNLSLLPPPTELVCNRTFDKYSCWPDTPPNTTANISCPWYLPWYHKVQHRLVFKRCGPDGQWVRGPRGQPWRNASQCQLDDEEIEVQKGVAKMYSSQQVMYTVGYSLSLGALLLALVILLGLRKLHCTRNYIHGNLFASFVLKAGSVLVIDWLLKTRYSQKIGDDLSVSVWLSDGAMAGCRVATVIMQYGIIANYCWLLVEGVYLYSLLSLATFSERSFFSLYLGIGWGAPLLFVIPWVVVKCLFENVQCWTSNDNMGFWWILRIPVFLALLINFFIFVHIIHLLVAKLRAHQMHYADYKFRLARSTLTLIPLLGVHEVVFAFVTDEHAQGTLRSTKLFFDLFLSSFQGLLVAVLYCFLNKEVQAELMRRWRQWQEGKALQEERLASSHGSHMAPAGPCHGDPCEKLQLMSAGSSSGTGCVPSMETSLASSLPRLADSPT

[10] = molecular target: T4, Glucagon-like peptide 1 receptor (Mus musculus, UniProt O35659); assay: Antagonist activity at mouse GLP1R expressed in CHO-K1 cells assessed as inhibition of GLP1-induced cAMP production; format: functional, cell-based
T4 sequence (O35659 whole entry): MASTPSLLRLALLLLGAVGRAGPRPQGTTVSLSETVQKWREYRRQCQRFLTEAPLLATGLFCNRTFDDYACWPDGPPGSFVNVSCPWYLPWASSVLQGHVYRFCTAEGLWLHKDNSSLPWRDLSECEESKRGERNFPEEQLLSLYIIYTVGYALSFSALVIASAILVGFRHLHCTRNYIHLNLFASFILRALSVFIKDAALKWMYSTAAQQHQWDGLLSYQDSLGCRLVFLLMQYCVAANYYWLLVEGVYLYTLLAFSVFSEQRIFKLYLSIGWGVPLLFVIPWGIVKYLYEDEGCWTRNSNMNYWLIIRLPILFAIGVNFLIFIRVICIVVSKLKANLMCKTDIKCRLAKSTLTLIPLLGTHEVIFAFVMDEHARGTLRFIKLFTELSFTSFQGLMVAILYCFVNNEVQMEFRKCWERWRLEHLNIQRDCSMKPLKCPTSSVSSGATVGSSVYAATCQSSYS

[11] = Toxicity in C57BL/6 mouse assessed as adverse local and systemic responses at 1500 nmol/kg, sc; details: in vivo
[12] = Half life in C57BL/6 mouse at 1500 nmol/kg, sc measured upto 48 hrs by LC-MS analysis; format: ADME, organism-based; details: in vivo
Glucagon receptor [13] = molecular target: T1, Glucagon receptor; assay: Antagonist activity at human GCGR expressed in HEK293 cells assessed as inhibition of glucogon-induced cAMP production; format: functional, cell-based
[14] = molecular target: T5, Glucagon-like peptide 1 receptor (Mus musculus) (UniProt O35659); assay: Antagonist activity at mouse GLP1R expressed in CHO-K1 cells assessed as inhibition of GLP1-induced cAMP production relative to control; format: functional, cell-based; details: filed as antagonist, concentration not given here
T5 sequence (whole entry): T4 sequence (O35659 whole entry)

[15] = molecular target: T6, Gastric inhibitory polypeptide receptor (Mus musculus, UniProt Q0P543); assay: Antagonist activity at mouse GIPR expressed in CHO-K1 cells assessed as inhibition of GIP-induced cAMP production; format: cell-based
T6 sequence (Q0P543 whole entry): T2 sequence (whole entry)

[16] = Chemical stability of compound in PBS buffer incubated for 5 to 7 days by LC-MS analysis; format: physicochemical; details: time 5-7 day
[17] = molecular target: Glucagon-like peptide 1 receptor (Homo sapiens, UniProt P43220); assay: Antagonist activity at human GLP-1R expressed in HEK293 cells assessed as inhibition of GLP1-induced cAMP production; format: functional, cell-based
Chain of Glucagon-like peptide 1 receptor (Homo sapiens, UniProt P43220) (P43220 whole entry): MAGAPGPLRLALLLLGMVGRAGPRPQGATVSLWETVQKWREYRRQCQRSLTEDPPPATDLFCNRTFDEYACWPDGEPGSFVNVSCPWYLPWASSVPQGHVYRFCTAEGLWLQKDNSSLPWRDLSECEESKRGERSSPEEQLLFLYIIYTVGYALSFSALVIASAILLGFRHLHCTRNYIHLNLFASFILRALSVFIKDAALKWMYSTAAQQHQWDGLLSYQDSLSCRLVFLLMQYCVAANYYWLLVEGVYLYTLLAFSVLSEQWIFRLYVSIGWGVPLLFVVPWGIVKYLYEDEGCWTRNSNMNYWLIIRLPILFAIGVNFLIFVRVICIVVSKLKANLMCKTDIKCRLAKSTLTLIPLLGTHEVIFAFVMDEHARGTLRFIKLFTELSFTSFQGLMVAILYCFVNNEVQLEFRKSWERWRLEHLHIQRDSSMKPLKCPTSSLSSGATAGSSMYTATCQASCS

[18] = Cmax in C57BL/6 mouse at 1500 nmol/kg, sc measured upto 48 hrs by LC-MS analysis; format: ADME, organism-based; design: route subcutaneous, dose 1500 nmol/kg, time <=48; details: in vivo
[19] = molecular target: T7, Gastric inhibitory polypeptide receptor (Homo sapiens) (UniProt P48546); assay: Antagonist activity at human GIPR expressed in HEK293 cells assessed as inhibition of GIP-induced cAMP production relative to control; format: functional, cell-based; details: filed as antagonist, concentration not given here
T7 sequence (whole entry): T3 sequence (P48546 whole entry)

Glucagon receptor [20] = molecular target: Glucagon receptor (Mus musculus, UniProt Q61606); assay: Antagonist activity at mouse GCGR expressed in CHO-K1 cells assessed as inhibition of glucogon-induced cAMP production; format: functional, cell-based
Chain of Glucagon receptor (Mus musculus, UniProt Q61606) (Q61606 whole entry): as the sequence (Q61606 whole entry) above

Activity (Glucagon receptor [1]): Active
Activity (Glucagon receptor [2]): inactive
Compound: H-LTFTSEYSKYLDSRRAQDFVQWLMNT-NH2

inhibition [3]: 97%
AUC at 48 h [5]: 37.4 µM·h
IC50 [6]: 60 nM
inhibition (Glucagon receptor [8]): 100%
inhibition [9]: 92%
IC50 [10]: 131 nM
half-life [12]: 6.73 h
IC50 (Glucagon receptor [13]): 0.43 nM
inhibition [14]: 99%
IC50 [15]: 125 nM
Stabilty [16]: Stable
IC50 [17]: 99 nM
Cmax [18]: 3.31 µM
inhibition [19]: 96%
IC50 (Glucagon receptor [20]): 0.53 nM
Compound: CCCCCCCCCCCCCCCC(=O)N[C@@H](CCC(=O)N[C@@H](CCC(=O)NCCCC[C@H](NC(=O)[C@H](CC(=O)O)NC(=O)[C@H](CO)NC(=O)[C@@H](NC(=O)[C@@H](O)Cc1ccccc1)[C@@H](C)O)C(=O)N[C@@H](CO)C(=O)N[C@@H](CCCCN)C(=O)N[C@@H](Cc1ccc(O)cc1)C(=O)N[C@@H](CC(C)C)C(=O)N[C@@H](CC(=O)O)C(=O)N[C@@H](CO)C(=O)N[C@@H](CCCNC(=N)N)C(=O)N[C@@H](CCCNC(=N)N)C(=O)N[C@@H](C)C(=O)N[C@@H](CCC(N)=O)C(=O)N[C@@H](CC(=O)O)C(=O)N[C@@H](Cc1ccccc1)C(=O)N[C@H](C(=O)N[C@@H](CCC(N)=O)C(=O)N[C@@H](Cc1c[nH]c2ccccc12)C(=O)N[C@@H](CC(C)C)C(=O)N[C@@H](CCSC)C(=O)N[C@@H](CC(=O)O)C(=O)N[C@H](C(N)=O)[C@@H](C)O)C(C)C)C(=O)O)C(=O)O (HELM PEPTIDE1{[O=C([C@@H](O)Cc1ccccc1)[*:2]].T.S.D.K.S.K.Y.L.D.S.R.R.A.Q.D.F.V.Q.W.L.M.D.T.[am]}|PEPTIDE2{[CCCCCCCCCCCCCCCC(=O)[*:2]].[gGlu].[gGlu]}$PEPTIDE1,PEPTIDE2,5:R3-3:R2$$$V2.0)
inhibition (Mus musculus [4]): Active
inhibition (Mus musculus [7]): Active
Activity [11]: Non-Toxic

IC50 (Glucagon receptor [13]): 79.1 nM
Activity (Glucagon receptor [2]; filed as antagonist): Dose-Dependent Effect
Compound: H-FTSEYSKYLDSRRAQDFVQWLMNT-NH2

IC50 (Glucagon receptor [13]): 40 nM
Activity (Glucagon receptor [2]; filed as antagonist): Dose-Dependent Effect
Compound: CSCC[C@H](NC(=O)[C@H](CC(C)C)NC(=O)[C@H](Cc1c[nH]c2ccccc12)NC(=O)[C@H](CCC(N)=O)NC(=O)[C@@H](NC(=O)[C@H](Cc1ccccc1)NC(=O)[C@H](CC(=O)O)NC(=O)[C@H](CCC(N)=O)NC(=O)[C@H](C)NC(=O)[C@H](CCCNC(=N)N)NC(=O)[C@H](CCCNC(=N)N)NC(=O)[C@H](CO)NC(=O)[C@H](CC(=O)O)NC(=O)[C@H](CC(C)C)NC(=O)[C@H](Cc1ccc(O)cc1)NC(=O)[C@H](CCCCN)NC(=O)[C@H](CO)NC(=O)[C@H](Cc1ccc(O)cc1)NC(=O)[C@H](CCC(=O)O)NC(=O)[C@H](CO)NC(=O)[C@@H](NC(=O)[C@@H](O)Cc1ccccc1)[C@@H](C)O)C(C)C)C(=O)N[C@@H](CC(N)=O)C(=O)N[C@H](C(N)=O)[C@@H](C)O (HELM PEPTIDE1{[O=C([C@@H](O)Cc1ccccc1)[*:2]].T.S.E.Y.S.K.Y.L.D.S.R.R.A.Q.D.F.V.Q.W.L.M.N.T.[am]}$$$$V2.0)
